Experimental data reported in US10513523B2, “Imidazopyrazines and pyrazolopyrimidines and their use as AMPA receptor modulators” (Janssen Pharmaceutica NV, priority 2015, dated 2019).

Target: GluA1o-γ8 (GRIA1o-CACNG8 fusion construct; TARP γ8 dependent AMPA receptor) (Homo sapiens (Human), UniProt P42261+Q8WXS5)
Test: Calcium flux assay (FLIPR), inhibition of glutamate response of GluA1o-γ8 channel
Format: cell-based
Settings: HEK293 cells stably expressing GRIA1o-CACNG8 fusion; 15 μM glutamate; pIC50 = negative log of IC50 in molar; read-out: GluR1-γ8 (pIC50) (converted)
Excerpt: This assay was used to test compounds for their ability to inhibit TARP γ8 dependent AMPA receptor activity. The AMPA receptor is a non-selective cation channel activated by glutamate. Ionotropic glutamate receptors normally desensitize too rapidly to allow detectable calcium influx in a FLIPR assay (Strange et al. (2006). “Functional characterisation of homomeric ionotropic glutamate receptors GluR1-GluR6 in a fluorescence-based high throughput screening assay.” Comb Chem High Throughput Screen 9(2): 147-158). But, this desensitization is incomplete, and a substantial steady-state current remains in the sustained presence of glutamate (Cho et al. (2007). “Two families of TARP isoforms that have distinct effects on the kinetic properties of AMPA receptors and synaptic currents.” Neuron 55(6): 890-904).
An in vitro assay was used to determine the potency of test compounds as inhibitors of the glutamate response of the channel formed by GluA1o-γ8. To ensure a 1:1 stoichiometry of GluA10 and γ8 subunits in the expressed channel, a fusion of the cDNAs for GRIA1o and CACNG8 was used. Following Shi et al (2009) “The stoichiometry of AMPA receptors and TARPs varies by neuronal cell type.” Neuron 62(5): […]), the C-terminus of the cDNA for GRI1o was fused to the N-terminus of the cDNA for γ8. The linker sequence was […]. […] A clonal cell line in HEK293 cells stably expressing this construct, with a geneticin selection marker, was generated for use in this assay. Cell expressing the GRIA1o-CACNG8 fusion construct were grown in a monolayer in 96- or 384-well microtiter plates. They were washed with assay buffer (135 mM NaCl, 4 mM KCl, 3 mM CaCl2, 1 mM MgCl2, 5 mM glucose, 10 mM HEPES, pH 7.4, 300 mOs) using a Biotek EL405 plate washer. The cells were then loaded with a calcium-sensitive dye (Calcium-5 or Calcium-6, Molecular Devices) and the test compounds at a range of concentrations. Calcium flux following the addition of 15 μM glutamate was monitored using a Molecular Devices FLIPR Tetra.
The fluorescence in each well was normalized to the fluorescence of negative and positive control wells. […] The responses to glutamate as functions of the test compound concentrations were fitted to a four-parameter logistic function. The fitted parameter corresponding to the midpoint was taken to be the potency of inhibition of the compound.

Chain of GluA1o-γ8 (GRIA1o-CACNG8 fusion construct; TARP γ8 dependent AMPA receptor) (P42261 other isoform, or with tags, fused parts or gaps): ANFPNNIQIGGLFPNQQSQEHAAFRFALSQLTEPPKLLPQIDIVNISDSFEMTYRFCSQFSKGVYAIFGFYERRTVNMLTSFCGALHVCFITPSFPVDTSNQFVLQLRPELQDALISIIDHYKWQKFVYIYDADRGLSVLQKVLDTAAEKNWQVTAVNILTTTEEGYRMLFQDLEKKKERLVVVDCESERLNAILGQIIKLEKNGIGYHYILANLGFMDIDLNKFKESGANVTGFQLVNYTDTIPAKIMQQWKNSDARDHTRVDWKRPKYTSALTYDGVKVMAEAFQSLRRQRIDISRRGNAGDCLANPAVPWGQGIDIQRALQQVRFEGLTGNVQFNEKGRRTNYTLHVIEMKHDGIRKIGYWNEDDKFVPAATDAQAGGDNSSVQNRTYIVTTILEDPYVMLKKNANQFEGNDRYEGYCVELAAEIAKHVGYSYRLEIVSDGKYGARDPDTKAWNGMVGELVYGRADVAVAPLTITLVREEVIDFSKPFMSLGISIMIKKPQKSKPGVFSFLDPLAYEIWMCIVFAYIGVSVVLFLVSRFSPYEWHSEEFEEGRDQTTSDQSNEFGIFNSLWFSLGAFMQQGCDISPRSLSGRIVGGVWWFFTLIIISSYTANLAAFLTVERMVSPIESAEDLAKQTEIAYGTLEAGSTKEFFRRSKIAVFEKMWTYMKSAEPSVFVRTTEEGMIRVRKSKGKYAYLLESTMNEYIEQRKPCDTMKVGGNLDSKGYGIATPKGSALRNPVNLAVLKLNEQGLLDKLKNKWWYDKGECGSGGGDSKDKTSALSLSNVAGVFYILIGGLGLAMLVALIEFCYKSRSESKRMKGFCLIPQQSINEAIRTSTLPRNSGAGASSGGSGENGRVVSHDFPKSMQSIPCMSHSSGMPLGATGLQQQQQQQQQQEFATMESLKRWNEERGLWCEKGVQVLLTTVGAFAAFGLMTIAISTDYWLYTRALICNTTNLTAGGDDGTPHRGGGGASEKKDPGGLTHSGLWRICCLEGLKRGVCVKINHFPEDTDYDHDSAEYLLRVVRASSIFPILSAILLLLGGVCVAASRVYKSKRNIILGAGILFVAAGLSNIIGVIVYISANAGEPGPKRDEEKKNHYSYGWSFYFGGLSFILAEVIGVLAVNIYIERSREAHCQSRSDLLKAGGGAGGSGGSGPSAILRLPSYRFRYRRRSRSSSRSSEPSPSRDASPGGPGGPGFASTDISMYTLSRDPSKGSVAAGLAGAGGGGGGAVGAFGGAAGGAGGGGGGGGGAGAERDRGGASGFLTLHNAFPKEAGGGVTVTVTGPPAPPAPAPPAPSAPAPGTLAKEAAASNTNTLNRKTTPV

| Structure (SMILES) | IC50 |
| --- | --- |
| CC(=O)N1CCN(c2nccn3c(-c4ccc(O)cc4)c(-c4ccc(Cl)cc4)nc23)CC1 [Example 94, 1-[4-[2-(4-Chlorophenyl)-3-(4-hydroxyphenyl)imidazo[1,2-a]pyrazin-8-yl]piperazin-1-yl]ethanone] | 3.16 nM |
| CCN(CC)c1nccn2c(-c3ccc4c(c3)CC(=O)N4)c(-c3ccc(F)cc3)nc12 [Example 51, 5-[8-(Diethylamino)-2-(4-fluorophenyl)imidazo[1,2-a]pyrazin-3-yl]indolin-2-one] | 3.98 nM |
| COC1CCN(c2nccc3c(-c4ccc5[nH]c(=O)sc5c4)c(C(C)C)nn23)CC1 [Example 241, 6-[2-Isopropyl-7-(4-methoxy-1-piperidyl)pyrazolo[1,5-c]pyrimidin-3-yl]-3H-1,3-benzothiazol-2-one] | 2.51 nM |
| O=C(c1ccccc1)c1nc2c(N3CCOCC3)nccn2c1-c1ccc2[nH]c(=O)oc2c1 [Example 156, 6-(2-Benzoyl-8-morpholino-imidazo[1,2-a]pyrazin-3-yl)-3H-1,3-benzoxazol-2-one] | 1.26 nM |
| CNc1nccc2c(-c3ccc4c(c3)CC(=O)N4)c(-c3ccc(F)cc3)nn12 [Example 171, 5-[2-(4-Fluorophenyl)-7-(methylamino)pyrazolo[1,5-c]pyrimidin-3-yl]indolin-2-one] | 12.6 nM |
| O=C1Cc2cc(-c3c(-c4ccccc4)nc4c(N5CC(F)C5)nccn34)ccc2N1 [Example 81, 5-[8-(3-Fluoroazetidin-1-yl)-2-phenyl-imidazo[1,2-a]pyrazin-3-yl]indolin-2-one] | 0.398 nM |
| COC1CCN(c2nccc3c(-c4ccc5[nH]ncc5c4)c(-c4ccccc4)nn23)CC1 [Example 234, 3-(1H-Indazol-5-yl)-7-(4-methoxy-1-piperidyl)-2-phenyl-pyrazolo[1,5-c]pyrimidine] | 0.631 nM |
| O=C1Cc2cc(-c3c(-c4ccccc4)nn4c(N5CC[C@@H](O)[C@H](F)C5)nccc34)ccc2N1 (relative stereo) [Example 193, trans-5-[7-(3-Fluoro-4-hydroxy-1-piperidyl)-2-phenyl-pyrazolo[1,5-c]pyrimidin-3-yl]indolin-2-one] | 0.316 nM |
| CC(=O)N1CCN(c2nccn3c(-c4ccc5c(c4)CC(=O)N5)c(C(=O)c4ccccc4)nc23)CC1 [Example 158, 5-[8-(4-Acetylpiperazin-1-yl)-2-benzoyl-imidazo[1,2-a]pyrazin-3-yl]indolin-2-one] | 5.01 nM |
| O=C1Cc2cc(-c3c(-c4ccccc4)nn4c(N5CCOCC5)ncc(Br)c34)ccc2N1 [Example 207, 5-(4-Bromo-7-morpholino-2-phenyl-pyrazolo[1,5-c]pyrimidin-3-yl)indolin-2-one] | 0.398 nM |
| O=C(Nc1ccccn1)c1nc2c(N3CCOCC3)nccn2c1-c1ccc2[nH]c(=O)[nH]c2c1 [Example 221, 8-Morpholino-3-(2-oxo-1,3-dihydrobenzimidazol-5-yl)-N-(2-pyridyl)imidazo[1,2-a]pyrazine-2-carboxamide] | 31.6 nM |
| O=c1[nH]c2ccc(-c3c(-c4ccc(F)cc4)nc4c(N5CCOCC5)nccn34)cc2s1 [Example 118, 6-[2-(4-Fluorophenyl)-8-morpholino-imidazo[1,2-a]pyrazin-3-yl]-3H-1,3-benzothiazol-2-one] | 0.316 nM |
| O=C1Cc2cc(-c3c(-c4ccncc4)nc4c(N5CC(F)C5)nccn34)ccc2N1 [Example 89, 5-[8-(3-Fluoroazetidin-1-yl)-2-(4-pyridyl)imidazo[1,2-a]pyrazin-3-yl]indolin-2-one] | 200 nM |
| O=C1CN(c2nccc3c(-c4ccc5c(c4)CC(=O)N5)c(-c4ccc(F)cc4)nn23)CCN1 [Example 168, 5-[2-(4-Fluorophenyl)-7-(3-oxopiperazin-1-yl)pyrazolo[1,5-c]pyrimidin-3-yl]indolin-2-one] | 1.26 nM |
| COC1CCN(c2nccc3c(-c4ccc5c(c4)CC(=O)N5)c(-c4ccccc4)nn23)CC1 [Example 189, 5-[7-(4-Methoxy-1-piperidyl)-2-phenyl-pyrazolo[1,5-c]pyrimidin-3-yl]indolin-2-one] | 0.158 nM |
| O=c1[nH]c2ccc(-c3c(-c4ccc(F)cc4)nc4c(N5CCOCC5)ncc(Cl)n34)cc2[nH]1 [Example 82, 5-[5-Chloro-2-(4-fluorophenyl)-8-morpholino-imidazo[1,2-a]pyrazin-3-yl]-1,3-dihydrobenzimidazol-2-one] | 0.316 nM |

| Structure (SMILES) | IC50 |
| --- | --- |
| O=C1Cc2cc(-c3c(-c4ccc(F)cc4)nc4c(N5CCC6(CC5)OCCO6)nccn34)ccc2N1 [Example 55, 5-[8-(1,4-Dioxa-8-azaspiro[4.5]decan-8-yl)-2-(4-fluorophenyl)imidazo[1,2-a]pyrazin-3-yl]indolin-2-one] | 0.2 nM |
| O=S1(=O)Cc2cc(-c3c(-c4ccc(F)cc4)nc4c(N5CC6(COC6)C5)nccn34)ccc2N1 [Example 108, 5-(2-(4-Fluorophenyl)-8-(2-oxa-6-azaspiro[3.3]heptan-6-yl)imidazo[1,2-a]pyrazin-3-yl)-1,3-dihydrobenzo[c]isothiazole 2,2-dioxide] | 15.8 nM |
| CC1(O)CCN(c2nccn3c(-c4ccc5c(c4)CC(=O)N5)c(-c4ccc(F)cc4)nc23)CC1 [Example 68, 5-[2-(4-Fluorophenyl)-8-(4-hydroxy-4-methyl-1-piperidyl)imidazo[1,2-a]pyrazin-3-yl]indolin-2-one] | 0.1 nM |
| CO[C@H]1CCN(c2nccc3c(-c4ccc5c(c4)CC(=O)N5)c(-c4ccccc4)nn23)C1 [Example 197, 5-[7-[(3S)-3-Methoxypyrrolidin-1-yl]-2-phenyl-pyrazolo[1,5-c]pyrimidin-3-yl]indolin-2-one] | 1.26 nM |
| O=c1ccc2cc(-c3c(-c4ccc(F)cc4)nc4c(N5CCOCC5)nccn34)ccc2[nH]1 [Example 125, 6-[2-(4-Fluorophenyl)-8-morpholino-imidazo[1,2-a]pyrazin-3-yl]-1H-quinolin-2-one] | 39.8 nM |
| CNc1nccn2c(-c3ccc4c(c3)CC(=O)N4)c(-c3ccc(F)cc3)nc12 [Example 167, 5-[2-(4-Fluorophenyl)-8-(methylamino)imidazo[1,2-a]pyrazin-3-yl]indolin-2-one] | 25.1 nM |
| CC(C)c1nn2cnc(C(F)(F)F)cc2c1-c1ccc2[nH]c(=O)sc2c1 [Example 231, 6-[2-Isopropyl-5-(trifluoromethyl)pyrazolo[1,5-c]pyrimidin-3-yl]-3H-1,3-benzothiazol-2-one] | 63.1 nM |
| O=C(Nc1ccccc1)c1nc2c(N3CCOCC3)nccn2c1-c1ccc2[nH]c(=O)[nH]c2c1 [Example 140, 8-Morpholino-3-(2-oxo-1,3-dihydrobenzimidazol-5-yl)-N-phenyl-imidazo[1,2-a]pyrazine-2-carboxamide] | 20 nM |
| CC1(O)CN(c2nccc3c(-c4ccc5c(c4)CC(=O)N5)c(-c4ccc(F)cc4)nn23)C1 [Example 184, 5-[2-(4-Fluorophenyl)-7-(3-hydroxy-3-methyl-azetidin-1-yl)pyrazolo[1,5-c]pyrimidin-3-yl]indolin-2-one] | 3.16 nM |
| O=C1Cc2cc(-c3c(-c4ccc(F)cc4)nc4c(N5CCC(=NO)CC5)nccn34)ccc2N1 [Example 155, 5-[2-(4-Fluorophenyl)-8-(4-hydroxyimino-1-piperidyl)imidazo[1,2-a]pyrazin-3-yl]indolin-2-one] | 79.4 nM |
| CC(=O)N[C@@H]1CCN(c2nccn3c(-c4ccc5[nH]c(=O)[nH]c5c4)c(-c4ccc(F)cc4)nc23)C1 [Example 100, N-[(3R)-1-[2-(4-Fluorophenyl)-3-(2-oxo-1,3-dihydrobenzimidazol-5-yl)imidazo[1,2-a]pyrazin-8-yl]pyrrolidin-3-yl]acetamide] | 12.6 nM |
| O=c1[nH]c2ccc(-c3c(-c4ccccc4)nc4cnc(C(F)(F)F)cn34)cc2s1 [Example 245, 6-[2-Phenyl-6-(trifluoromethyl)imidazo[1,2-a]pyrazin-3-yl]-3H-1,3-benzothiazol-2-one] | 12.6 nM |
| O=c1[nH]c2ccc(-c3c(C4CCC4)nn4cnc(C(F)(F)F)cc34)cc2s1 [Example 229, 6-[2-Cyclobutyl-5-(trifluoromethyl)pyrazolo[1,5-c]pyrimidin-3-yl]-3H-1,3-benzothiazol-2-one] | 15.8 nM |
| CN1CCN(c2nccn3c(-c4ccc5c(c4)CC(=O)N5)c(-c4ccc(F)cc4)nc23)CC1=O [Example 110, 5-(2-(4-fluorophenyl)-8-(4-methyl-3-oxopiperazin-1-yl)imidazo[1,2-a]pyrazin-3-yl)indolin-2-one] | 1.26 nM |
| O=C1Cc2cc(-c3c(C4CCCCC4)nc4c(N5CCOCC5)nccn34)ccc2N1 [Example 56, 5-(2-Cyclohexyl-8-morpholino-imidazo[1,2-a]pyrazin-3-yl)indolin-2-one] | 7.94 nM |
